# Results reported in patent EP2305660A1, “New thiadiazole derivatives” (Almirall, S.A., priority 2009, dated 2011).
# Where a name gives a salt, the structure may show the parent alone.
# Molecular target: S1P1 (Homo sapiens, UniProt P21453)
# Test: 35S-GTPyS binding assay (membranes)
# Format: biochemical
# Settings: compound 0.1nM-10µM, 0.1nM 35S-GTPyS, 10µM S1P as 100% maximum efficacy, 90 min at room temperature
# Experimental: The effect of the compounds was measured using a 35S-GTPyS binding assay. Briefly, membranes were incubated in a buffer containing 20 mM HEPES pH 7.4, 100 mM NaCl, 10 mM MgCl2, 10µM GDP, 50µg/ml saponin and 0.2% fatty acid-free BSA at various concentrations (0.1nM-10µM) and 0.1nM 35S-GTPyS. 10µM S1P was used as 100% maximum efficacy. The assay was incubated for 90 min at room temperature with gentle mixing, and terminated by filtrating the reaction mixture through GF/C filter plates using the Manifold Filtration System. The filters were immediately washed with sodium phosphate pH 7.4 buffer. After drying the filter plates scintillant liquid were added to each well and 35S-GTPyS binding was measured on a Trilux Scintillation Counter.
# Chain of S1P1 (P21453 whole entry, species assumed): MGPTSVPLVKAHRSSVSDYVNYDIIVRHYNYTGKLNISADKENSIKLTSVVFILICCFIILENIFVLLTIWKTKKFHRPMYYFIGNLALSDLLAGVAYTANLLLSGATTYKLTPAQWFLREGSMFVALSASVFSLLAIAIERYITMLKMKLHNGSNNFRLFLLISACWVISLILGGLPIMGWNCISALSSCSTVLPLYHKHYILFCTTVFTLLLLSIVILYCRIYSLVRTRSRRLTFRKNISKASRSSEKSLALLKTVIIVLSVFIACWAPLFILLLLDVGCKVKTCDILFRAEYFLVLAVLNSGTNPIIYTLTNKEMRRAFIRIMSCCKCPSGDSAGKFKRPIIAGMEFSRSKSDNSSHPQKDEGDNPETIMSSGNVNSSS
row,EC50 [nM],SMILES
1,40,"CCCCN(C(=O)c1ccccc1F)c1nnc(-c2ccc(CNCCO)cc2)s1 [Example 36, N-butyl-2-fluoro-N-[5-(4-{[(2-hydroxyethyl)amino]methyl}phenyl)-1,3,4-thiadiazol-2-yl]benzamide, formate salt]"
2,70,"CCCCN(C(=O)Nc1ccccc1)c1nnc(-c2ccc(CN3CC(C(=O)O)C3)cc2)s1 [Example 40, 1-(4-{5-[(anilinocarbonyl)(butyl)amino]-1,3,4-thiadiazol-2-yl}benzyl)azetidine-3-carboxylic acid]"
3,8.5,"CCCCN(C(=O)c1ccccc1F)c1nnc(-c2cc(C)c(OCCN(C)CCO)c(C)c2)s1 [Example 57, N-butyl-2-fluoro-N-[5-(4-{2-[(2-hydroxyethyl)(methyl)amino]ethoxy}-3,5-dimethylphenyl)-1,3,4-thiadiazol-2-yl]benzamide]"

# More lines, now with the values behind:
row,SMILES,EC50 [nM]
1,"CCCCN(C(=O)c1ccccc1F)c1nnc(-c2cc(C)c(OCCN3CC(C(=O)O)C3)c(C)c2)s1 [Example 1, 1-[2-(4-{5-[Butyl(2-fluorobenzoyl)amino]-1,3,4-thiadiazol-2-yl}-2,6-dimethylphenoxy)ethyl]azetidine-3-carboxylic acid]",2.5
2,"CCCCN(C(=O)c1ccccc1F)c1nnc(-c2cc(C)c(OCCNCCc3nn[nH]n3)c(C)c2)s1 [Example 12, N-butyl-N-{5-[3,5-dimethyl-4-(2-{[2-(2H-tetrazol-5-yl)ethyl]amino}ethoxy)phenyl]-1,3,4-thiadiazol-2-yl}-2-fluorobenzamide]",0.4
3,"Cc1cc(-c2nnc(N(CC3CC3)C(=O)c3ccccc3Cl)s2)cc(C)c1OCCN1CCC(CC(=O)O)CC1 [Example 23, {1-[2-(4-{5-[(2-chlorobenzoyl)(cyclopropylmethyl)amino]-1,3,4-thiadiazol-2-yl}-2,6-dimethylphenoxy)ethyl]piperidin-4-yl}acetic acid hydrochloride]",4.1
4,"CCCCN(C(=O)c1ccccc1F)c1nnc(-c2ccc(CN3CC(c4nnn[nH]4)C3)cc2)s1 [Example 30, N-butyl-2-fluoro-N-[5-(4-{[3-(1H-tetrazol-5-yl)azetidin-1-yl]methyl}phenyl)-1,3,4-thiadiazol-2-yl]benzamide]",2.3
5,"CCCCN(C(=O)c1ccccc1F)c1nnc(-c2cc(C)c(OCCNCCn3cncn3)c(C)c2)s1 [Example 31, N-butyl-N-{5-[3,5-dimethyl-4-(2-{[2-(1H-1,2,4-triazol-1-yl)ethyl]amino}ethoxy)-phenyl]-1,3,4-thiadiazol-2-yl}-2-fluorobenzamide]",4.1
